Measured values: PubChem BioAssay AID1918991 (Molecular Pharmacology Branch, DTP, NCI, 2023)
pIC50: −log10 of the molar value.

Test system: 186277-243-T-J2-PDC complex spheroid growth
Assay: Anticancer human tumor 186277-243-T-J2-PDC patient-derived colon adenocarcinoma cell line growth inhibition [AhR]
Conditions: for pIC50: curve of first compound; for viability, T/C: stronger effect = lower value; active = viability on the fitted dose curve at most 10% of control; inactive = the rest
Procedure, shortened: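 Agents were dosed in half-log steps down from roughly clinical Cmax, or from 10 microM where Cmax was unknown, alone and with AhR antagonists. Read-out: percent test/control growth of tumor spheroids containing HUVEC and MSC stromal cells.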

[1] = second compound 0.1 µM, first compound 0.0316 µM
[2] = second compound 0.1 µM, first compound 0.1 µM
[3] = second compound 0.1 µM, first compound 0.316 µM
[4] = second compound 0.1 µM, first compound 1 µM
[5] = second compound 0.1 µM, first compound 3.16 µM
[6] = second compound 0.1 µM, first compound 10 µM
[7] = second compound 0.316 µM, first compound 0.0316 µM
[8] = second compound 0.316 µM, first compound 0.1 µM
[9] = second compound 0.316 µM, first compound 0.316 µM
[10] = second compound 0.316 µM, first compound 1 µM
[11] = second compound 0.316 µM, first compound 3.16 µM
[12] = second compound 0.316 µM, first compound 10 µM
[13] = second compound 1 µM, first compound 0.0316 µM
[14] = second compound 1 µM, first compound 0.1 µM
[15] = second compound 1 µM, first compound 0.316 µM
[16] = second compound 1 µM, first compound 1 µM
[17] = second compound 1 µM, first compound 3.16 µM
[18] = second compound 1 µM, first compound 10 µM
[19] = second compound 3.16 µM, first compound 0.0316 µM
[20] = second compound 3.16 µM, first compound 0.1 µM
[21] = second compound 3.16 µM, first compound 0.316 µM
[22] = second compound 3.16 µM, first compound 1 µM
[23] = second compound 3.16 µM, first compound 3.16 µM
[24] = second compound 3.16 µM, first compound 10 µM
[25] = second compound 10 µM, first compound 0.0316 µM
[26] = second compound 10 µM, first compound 0.1 µM
[27] = second compound 10 µM, first compound 0.316 µM
[28] = second compound 10 µM, first compound 1 µM
[29] = second compound 10 µM, first compound 3.16 µM
[30] = second compound 10 µM, first compound 10 µM
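Also: spheroids exposed to compounds for seven days before the viability read.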
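For viability, T/C in this document: luminescent signal used as a stand-in for viable cell amount; 100% = DMSO vehicle control wells.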

CC(C)c1c(-c2ccccc2)nc2c(C#N)c[nH]n2c1=O + Cc1ccccc1N=Nc1ccc(NC(=O)c2ccnn2C)c(C)c1
inactive: viability, T/C [1] 97.4% | viability, T/C [2] 110% | viability, T/C [3] 104% | viability, T/C [4] 105% | viability, T/C [5] 109% | viability, T/C [6] 97.5% | viability, T/C [7] 103% | viability, T/C [8] 104% | viability, T/C [9] 103% | viability, T/C [10] 98% | viability, T/C [11] 112% | viability, T/C [12] 98% | viability, T/C [13] 98.9% | viability, T/C [14] 106% | viability, T/C [15] 115% | viability, T/C [16] 96.4% | viability, T/C [17] 98.3% | viability, T/C [18] 104% | viability, T/C [19] 95.2% | viability, T/C [20] 108% | viability, T/C [21] 94.3% | viability, T/C [22] 99.7% | viability, T/C [23] 99.7% | viability, T/C [24] 98.7% | viability, T/C [25] 102% | viability, T/C [26] 97.2% | viability, T/C [27] 92.6% | viability, T/C [28] 101% | viability, T/C [29] 85.8% | viability, T/C [30] 90.1%
< 5.00: pIC50 (second compound 0.1 µM) | pIC50 (second compound 0.316 µM) | pIC50 (second compound 1 µM) | pIC50 (second compound 3.16 µM) | pIC50 (second compound 10 µM)

CC1COCCN1c1cc(-c2ccnn2C)c2ccnc(-c3ccn[nH]3)c2n1 (stereo not given) + Cc1ccccc1N=Nc1ccc(NC(=O)c2ccnn2C)c(C)c1
7.09: pIC50 (second compound 0.1 µM)
7.12: pIC50 (second compound 3.16 µM)
inactive: viability, T/C (second compound 0.1 µM, first compound 0.00316 µM) 99.9% | viability, T/C (second compound 0.1 µM, first compound 0.01 µM) 105% | viability, T/C [1] 96.7% | viability, T/C [2] 40.1% | viability, T/C (second compound 0.316 µM, first compound 0.00316 µM) 97.5% | viability, T/C (second compound 0.316 µM, first compound 0.01 µM) 102% | viability, T/C [7] 93.9% | viability, T/C [8] 42.4% | viability, T/C (second compound 1 µM, first compound 0.00316 µM) 98.8% | viability, T/C (second compound 1 µM, first compound 0.01 µM) 106% | viability, T/C [13] 100% | viability, T/C [14] 44.1% | viability, T/C (second compound 3.16 µM, first compound 0.00316 µM) 97.7% | viability, T/C (second compound 3.16 µM, first compound 0.01 µM) 104% | viability, T/C [19] 92.6% | viability, T/C [20] 35.9% | viability, T/C (second compound 10 µM, first compound 0.00316 µM) 77% | viability, T/C (second compound 10 µM, first compound 0.01 µM) 91.9% | viability, T/C [25] 74.3% | viability, T/C [26] 33.7%
7.20: pIC50 (second compound 10 µM)
7.07: pIC50 (second compound 0.316 µM)
7.05: pIC50 (second compound 1 µM)
active: viability, T/C [3] 10.2% | viability, T/C [4] 8.07% | viability, T/C [9] 9.54% | viability, T/C [10] 7.22% | viability, T/C [15] 9.5% | viability, T/C [16] 7.1% | viability, T/C [21] 9.1% | viability, T/C [22] 7.15% | viability, T/C [27] 10.4% | viability, T/C [28] 7.02%

CC1COCCN1c1cc(C2(S(C)(=N)=O)CC2)nc(-c2ccnc3[nH]ccc23)n1 (stereo not given) + Cc1ccccc1N=Nc1ccc(NC(=O)c2ccnn2C)c(C)c1
inactive: viability, T/C [1] 105% | viability, T/C [2] 97.8% | viability, T/C [3] 81.3% | viability, T/C [4] 90.8% | viability, T/C [5] 35.8% | viability, T/C [6] 11.8% | viability, T/C [7] 99.1% | viability, T/C [8] 90.2% | viability, T/C [9] 98.5% | viability, T/C [10] 97% | viability, T/C [11] 33.9% | viability, T/C [12] 11.3% | viability, T/C [13] 89.4% | viability, T/C [14] 105% | viability, T/C [15] 81.8% | viability, T/C [16] 84.2% | viability, T/C [17] 34% | viability, T/C [19] 91.2% | viability, T/C [20] 83.8% | viability, T/C [21] 87.6% | viability, T/C [22] 95.1% | viability, T/C [23] 31.8% | viability, T/C [25] 82.1% | viability, T/C [26] 87.2% | viability, T/C [27] 87.5% | viability, T/C [28] 79.7% | viability, T/C [29] 35.6% | viability, T/C [30] 10.9%
active: viability, T/C [18] 9.66% | viability, T/C [24] 9.83%
5.66: pIC50 (second compound 1 µM) | pIC50 (second compound 3.16 µM) | pIC50 (second compound 10 µM)
5.63: pIC50 (second compound 0.1 µM) | pIC50 (second compound 0.316 µM)

COc1ccc([C@@H](O)c2cc(-c3ncnc4cc(N5CCOCC5)ccc34)c(F)cc2Cl)nn1 + Cc1ccccc1N=Nc1ccc(NC(=O)c2ccnn2C)c(C)c1
5.03: pIC50 (second compound 10 µM)
inactive: viability, T/C [1] 100% | viability, T/C [2] 98% | viability, T/C [3] 92.9% | viability, T/C [4] 80.2% | viability, T/C [5] 89.6% | viability, T/C [6] 55.8% | viability, T/C [7] 96.5% | viability, T/C [8] 104% | viability, T/C [9] 93.6% | viability, T/C [10] 80% | viability, T/C [11] 86.4% | viability, T/C [12] 52.2% | viability, T/C [13] 96.5% | viability, T/C [14] 101% | viability, T/C [15] 101% | viability, T/C [16] 98% | viability, T/C [17] 104% | viability, T/C [18] 62.7% | viability, T/C [19] 97.1% | viability, T/C [20] 89.4% | viability, T/C [21] 89.7% | viability, T/C [22] 79.8% | viability, T/C [23] 76.2% | viability, T/C [24] 54.2% | viability, T/C [25] 76.3% | viability, T/C [26] 81.9% | viability, T/C [27] 91% | viability, T/C [28] 80.5% | viability, T/C [29] 90.9% | viability, T/C [30] 47.5%
< 5.00: pIC50 (second compound 0.1 µM) | pIC50 (second compound 0.316 µM) | pIC50 (second compound 1 µM) | pIC50 (second compound 3.16 µM)

O=C(C=Cn1cnc(-c2cc(C(F)(F)F)cc(C(F)(F)F)c2)n1)NNc1cnccn1 + Cc1ccccc1N=Nc1ccc(NC(=O)c2ccnn2C)c(C)c1
6.33: pIC50 (second compound 3.16 µM)
6.37: pIC50 (second compound 10 µM)
6.30: pIC50 (second compound 0.316 µM)
6.31: pIC50 (second compound 0.1 µM)
inactive: viability, T/C (second compound 0.1 µM, first compound 0.00949 µM) 98.7% | viability, T/C (second compound 0.1 µM, first compound 0.03 µM) 107% | viability, T/C (second compound 0.1 µM, first compound 0.0949 µM) 101% | viability, T/C (second compound 0.1 µM, first compound 0.3 µM) 75.4% | viability, T/C (second compound 0.1 µM, first compound 0.949 µM) 16.8% | viability, T/C (second compound 0.316 µM, first compound 0.00949 µM) 94.2% | viability, T/C (second compound 0.316 µM, first compound 0.03 µM) 102% | viability, T/C (second compound 0.316 µM, first compound 0.0949 µM) 108% | viability, T/C (second compound 0.316 µM, first compound 0.3 µM) 77.7% | viability, T/C (second compound 0.316 µM, first compound 0.949 µM) 16.9% | viability, T/C (second compound 1 µM, first compound 0.00949 µM) 92.9% | viability, T/C (second compound 1 µM, first compound 0.03 µM) 106% | viability, T/C (second compound 1 µM, first compound 0.0949 µM) 108% | viability, T/C (second compound 1 µM, first compound 0.3 µM) 82.6% | viability, T/C (second compound 1 µM, first compound 0.949 µM) 18.7% | viability, T/C (second compound 3.16 µM, first compound 0.00949 µM) 96.4% | viability, T/C (second compound 3.16 µM, first compound 0.03 µM) 88.4% | viability, T/C (second compound 3.16 µM, first compound 0.0949 µM) 106% | viability, T/C (second compound 3.16 µM, first compound 0.3 µM) 71.7% | viability, T/C (second compound 3.16 µM, first compound 0.949 µM) 16.4% | viability, T/C (second compound 3.16 µM, first compound 3 µM) 10.3% | viability, T/C (second compound 10 µM, first compound 0.00949 µM) 90.2% | viability, T/C (second compound 10 µM, first compound 0.03 µM) 88% | viability, T/C (second compound 10 µM, first compound 0.0949 µM) 83.7% | viability, T/C (second compound 10 µM, first compound 0.3 µM) 63% | viability, T/C (second compound 10 µM, first compound 0.949 µM) 20.5% | viability, T/C (second compound 10 µM, first compound 3 µM) 12.7%
active: viability, T/C (second compound 0.1 µM, first compound 3 µM) 8.98% | viability, T/C (second compound 0.316 µM, first compound 3 µM) 7.87% | viability, T/C (second compound 1 µM, first compound 3 µM) 8.79%
6.27: pIC50 (second compound 1 µM)
